Experimental data published in article PMC11513854, “De novo GTP synthesis is a metabolic vulnerability for the interception of brain metastases” (Cell Reports Medicine, 2024).

Columns and labels:
[1] = Parallel artificial membrane permeability (PAMPA) assay; assay type: in vitro ADME; settings: 50 μM, pH 7.4, 16 h; −LogPe < 6 indicate high CNS permeability
Description: The permeability of the compounds was evaluated using the parallel artificial membrane permeability (PAMPA) assay, as previously described.[35] The PAMPA assembly was consisted of the acceptor plate (MultiScreen IP Filter Plate, Millipore Sigma, Canada) and the donor plate (96 well Collection Plate, Millipore Sigma, Canada). The artificial membrane solution was prepared as 15 mg/mL of polar brain lipid from porcine (Sigma Aldrich, Oakville, Canada) in a solution of 60% chloroform/40% dodecane. Seven μL of the mixture was pipetted into each acceptor plate well (top compartment). Thereafter, 300 μL of PBS (1 × PBS, pH 7.4, 5% DMSO) solution was added to each well of the acceptor plate and 300 μL of drug-containing donor solutions (50 μM compounds in 1 × PBS, pH 7.4, 5% DMSO) to each well of the donor plate (bottom compartment) in triplicate. […] The concentration of the compounds was determined by LC/MS/MS. The effective permeability (Pe), in units of centimeter per second, was calculated using the following equation: LogPe=Log{C×[−Ln(1−[drug]acceptor/[drug]equilibrium)]} Where: C = VD × VA/[(VD + VA) × t × A]; VD = volume of donor compartment (0.30 mL); VA = volume of acceptor compartment (0.30 mL); A = filter area (0.24 cm^2 for Multi-Screen Permeability Filter plate); and t = incubation time (in seconds).

[2] = tested on: patient-derived lung-BMICs; assay: Intracardiac injection of lung-BMICs, daily oral gavage treatment; assay type: in vivo, mice; settings: 100 mg/kg daily oral gavage, vs placebo
Description: We next wondered whether a drug used to slow down, or block, BM needed to be BBB penetrant and aimed to uncover whether MPA could target pre-metastatic BMICs in the circulation in a more clinically relevant in vivo treatment model.
All experimental procedures involving animal work has been reviewed and approved by McMaster University Animal Research Ethics Board. Non-obese diabetic-severe combined immunodeficient IL2r γ ^null (NSG) mice are used for all experiments. Equal numbers of male and female mice were used for all experiments. Healthy mice were 6–8 weeks at time of use. Mice are anesthetized by gas anesthesia using isoflurane (4% induction, 2.5% maintenance) before procedure. Cells were engineered to express firefly luciferase and were injected intracardially, orthotopically, or intracranially as previously described.[13]^,[14]^,[63]^,[64]^,[65] […] Mice are monitored weekly for signs of illness until endpoint.
Fig S3. MPA m ust cross the blood brain barrier to eff ectively slow the progression of BM over tim e, related to Figures 3 and 4. a, Mice were either orthotopically (intratho racically) or intracardiac injected with lung BMICs, […]
to placebo, but (f) had the same number of human cells detected in their brains following humane endpoint by flow cytometry. n.s. = not significant. […]

**Q.** With COc1c(C)c2c(c(O)c1C/C=C(\C)CCC(=O)OCCN1CCCC1)C(=O)OC2 [Compound 3] as the compound, how does the “BBB penetrance by PAMPA” value [1] read?
**A.** BBB penetrant

**Q.** What does the source list for COc1c(C)c2c(c(O)c1C/C=C(\C)CCC(=O)O)C(=O)OC2 [MPA, Mycophenolic acid]?
**A.** brain tumor burden ([2]; 7 days post-injection): significantly reduced brain tumor burden; difference in brain tumor burden ([2]; 14 days post-injection): no longer observed
